This assay has as its system reaginic antibody induced passive cutaneous anaphylaxis (PCA) reaction. Kind of assay: reaginic antibody induced passive cutaneous anaphylaxis (PCA) reaction in rats. In kind it is in vivo. The following applies: male rat; anti-Egg Albumin intradermal; two doses of test compound (75 mg./kg.) intraperitoneally, 90 and 10 minutes prior to intravenous Egg Albumin/Evans Blue challenge; scored thirty minutes after. The protocol:
The compounds of formula I are anti-allergics which inhibit the effects of certain antigen-antibody reactions and in particular inhibit the release of mediators such as histamine. The anti-allergy activity of these compounds is determined by the reaginic antibody induced passive cutaneous anaphylaxis (PCA) reaction in rats. (See Bach, Immediate Hypersensitivity: Laboratory Models and Experimental Findings, Ann. Rep. Med. Chem., 7: 238-248 (1972), for a discussion of the predictability of clinical efficacy of compounds active in the PCA).
The experimental procedure employed is as follows. A male rat is given an intradermal injection on one flank of 0.05 ml. of antibody (reaginic) (anti-Egg Albumin). 24 hours later two doses of test compound (75 mg./kg.) are administered intraperitoneally, one dose ninety minutes and the other ten minutes prior to a 0.5 ml. intravenous injection of an antigen challenge (equal portions of Egg Albumin 4 mg./ml. and 1% Evans Blue Dye). […] A score is obtained according to the formula
Total score = (diameter) × (intensity)
wherein the intensity of the spot is rated on a scale of 1 to 3 as follows
and the diameter is determined by averaging in millimeters two measured diameters of the reaction.
The percent inhibition is calculated by comparing the scores obtained in both compound and non-compound treated animals according to a pre-determined standard curve relationship between score and the quantity of antibody used to elicit the reaction.
Turning to `O=C1c2cccc3cccc(c23)C(=O)N1CCO` [2-(2-Hydroxyethyl)-1H-benz[de]isoquinoline-1,3(2H)-dione], the “Percent Inhibition” value turned out to be 36%.

As to `O=C1c2cccc3cccc(c23)C(=O)N1CCCO` [2-(3-Hydroxypropyl)-1H-benz[de]isoquinoline-1,3(2H)-dione], the “Percent Inhibition” value is given as 52%.

In the case of `O=C1c2cccc3cccc(c23)C(=O)N1CCCCO` [2-(4-Hydroxybutyl)-1H-benz[de]isoquinoline-1,3(2H)-dione], the “Percent Inhibition” value turned out to be 53%.

Take `O=C1c2cccc3cccc(c23)C(=O)N1CCCCCO` [2-(5-Hydroxypentyl)-1H-benz[de]isoquinoline-1,3(2H)-dione]: the “Percent Inhibition” value amounted to 8%.

As for `O=C1c2cccc3cccc(c23)C(=O)N1CO` [2-(Hydroxymethyl)-1H-benz[de]isoquinoline-1,3(2H)-dione], the “Percent Inhibition” value was determined as 50%.

Source of the values: US4006238A, “Use of 2-(hydroxyalkyl)-1H-benz[de]isoquinoline-1,3(2H)-diones as anti-allergy agents” (E. R. Squibb & Sons, Inc., priority 1975, dated 1977).
